This is an account of results in US20260285866A1, “MODULATORS OF TRPML, THEIR COMPOSITIONS AND METHODS OF USE” (Caraway Therapeutics, Inc., priority 2024, published 2026).

Common to all, as to type: cell-based
Test [1] deals with T1, Human TRPML3 (Homo sapiens, UniProt Q8TDD5).
T1 construct: expressed in transfected cells
T1 sequence (Q8TDD5 1-553): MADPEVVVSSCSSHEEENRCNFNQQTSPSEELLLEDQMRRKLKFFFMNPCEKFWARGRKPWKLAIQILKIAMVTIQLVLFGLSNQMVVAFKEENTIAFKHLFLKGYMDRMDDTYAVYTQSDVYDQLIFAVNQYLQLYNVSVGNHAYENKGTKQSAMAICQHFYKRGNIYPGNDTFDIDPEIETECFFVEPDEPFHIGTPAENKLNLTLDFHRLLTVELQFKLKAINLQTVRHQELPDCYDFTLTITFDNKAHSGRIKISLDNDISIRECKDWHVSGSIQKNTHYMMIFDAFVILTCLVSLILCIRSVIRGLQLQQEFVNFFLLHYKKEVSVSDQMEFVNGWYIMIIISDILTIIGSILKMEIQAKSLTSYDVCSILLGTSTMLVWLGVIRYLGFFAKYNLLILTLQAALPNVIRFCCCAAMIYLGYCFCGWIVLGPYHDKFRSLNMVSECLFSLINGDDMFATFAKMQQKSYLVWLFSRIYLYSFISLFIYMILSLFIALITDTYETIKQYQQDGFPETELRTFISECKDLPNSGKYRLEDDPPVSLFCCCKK
The test is described as follows: Fluorescent TRPML3 assay (as for TRPML1). As to conditions: fluorescent calcium assay as for TRPML1, TRPML3 subtype. As to the method:
(§1) HEK-293 Trex cells were stably transfected with a construct consisting of the human coding sequence for TRPML1 cloned into the tet-inducible plasmid pCDNA5 T/O. Mutations were introduced into the TRPML1 sequence to facilitate expression on the cell surface (Silvia Vergarajauregui, Rosa Puertollano Traffic. 2006 March; 7(3): 337-353). Briefly, the cells are cultured in 150 mm round tissue culture dishes containing 20 mL of media. The day before the assay the cells are rinsed with DPBS-Ca-Mg and then treated briefly with Trypsin-EDTA. The Trypsin-EDTA is diluted with growth media, and cells are counted. 38×10^6 cells are re-plated into 150 mm round tissue culture dishes in media containing 0.5 μg/mL doxycycline to induce expression of hTRPML1.
(§2) The day of the experiment cells are lifted from the plates as above and collected by centrifugation. The cells are then suspended in dye loading buffer consisting of Ringer's solution supplemented with 0.1% Pluronic Acid and 1 micromolar Fluo4-AM dye. Cells are loaded for ~60 minutes in the dark with occasional mixing. The cells are collected by centrifugation, the loading media aspirated, and the cells resuspended in 25 mL Ringer's solution and incubated ~60 minutes in the dark. The cells are again collected by centrifugation, rinsed in Ringer's Solution and resuspended to 0.2×10^6 cells/mL in modified Ringer's solution containing 10 mM calcium.
(§3) Compounds are dissolved to a concentration of 10 millimolar with DMSO. Compound plates are created by dispensing compounds into 384 well black wall clear bottom plates (Greiner 781091). Positive and negative controls are included on each plate. Typically, different amounts of each compound are tested ranging from 100 nanoMoles (20 micromolar final concentration) decreasing in half-log steps to 31 picoMoles (6 nanomolar final concentration). Each concentration is typically tested in triplicate.
(§4) 50 microliters of dye-loaded cells are dispensed into each well of the compound assay plate created above. The fluorescence in each well is then determined with an excitation wavelength of 480 nm and an emission wavelength of 540 nm using either a Molecular Devices SpectraMax multimode plate reader or a Hamamatsu FDSS/uCell plate imager.
(§5) The resulting fluorescence for each well is exported as an ascii file and loaded into our LIMS for analysis. The percent activity of each compound at each concentration is determined by comparison to the positive and negative control wells included in each plate.
(§6) Assays for TRPML2 and TRPML3 were performed as above for TRPML1, by substituting the appropriate TRPML2 or TRPML3 subtype for the TRPML1.
(§7) EC50 values were calculated using a non-linear regression of Prism. In the table, “A” indicates an EC50 of less than 100 nM, “B” indicates an EC50 range from 100 nM to 500 nM: “C” indicates an EC50 range from 500 nM to 2 μM; and “D” indicates an EC50 greater than 2 μM.

The target of test [2] is T2, Human TRPML2 (Homo sapiens, UniProt Q8IZK6).
T2 construct: expressed in transfected cells
T2 sequence (Q8IZK6 1-566): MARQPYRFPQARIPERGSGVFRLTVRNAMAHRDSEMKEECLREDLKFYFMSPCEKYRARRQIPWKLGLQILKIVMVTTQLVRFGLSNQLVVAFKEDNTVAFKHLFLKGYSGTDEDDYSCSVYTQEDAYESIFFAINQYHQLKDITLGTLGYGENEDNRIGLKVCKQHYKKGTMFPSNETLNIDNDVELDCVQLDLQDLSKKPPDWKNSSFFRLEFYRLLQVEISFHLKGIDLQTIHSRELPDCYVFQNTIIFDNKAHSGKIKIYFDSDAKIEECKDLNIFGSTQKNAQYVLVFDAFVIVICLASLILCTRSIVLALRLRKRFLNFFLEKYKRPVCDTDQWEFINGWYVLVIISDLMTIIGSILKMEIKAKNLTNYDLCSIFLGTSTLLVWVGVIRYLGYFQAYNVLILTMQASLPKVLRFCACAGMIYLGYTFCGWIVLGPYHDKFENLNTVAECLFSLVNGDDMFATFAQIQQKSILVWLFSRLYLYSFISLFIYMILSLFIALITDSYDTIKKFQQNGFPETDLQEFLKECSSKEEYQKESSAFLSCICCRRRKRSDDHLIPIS
The test is described as follows: Fluorescent TRPML2 assay (as for TRPML1). The settings on record: fluorescent calcium assay as for TRPML1, TRPML2 subtype. On the procedure:
as §1, §2, §3, §4, §5, §6, §7

In test [3] the target is Human TRPML1 (Homo sapiens, UniProt Q9GZU1, L15A/L16A/L577A/L578A). The test is described as follows: Fluorescent TRPML1 assay (Fluo4-AM, HEK-293 Trex cells expressing hTRPML1). As to conditions: fluorescent calcium assay, doxycycline-induced hTRPML1. On the procedure:
Example 27. Fluorescent TRPML Assays
as §1, §2, §3, §4, §5, §7

pEC50: −log10 of the molar value. Some results are limits rather than exact numbers.

Human TRPML1, sequence (Q9GZU1 whole entry L15A/L16A/L577A/L578A): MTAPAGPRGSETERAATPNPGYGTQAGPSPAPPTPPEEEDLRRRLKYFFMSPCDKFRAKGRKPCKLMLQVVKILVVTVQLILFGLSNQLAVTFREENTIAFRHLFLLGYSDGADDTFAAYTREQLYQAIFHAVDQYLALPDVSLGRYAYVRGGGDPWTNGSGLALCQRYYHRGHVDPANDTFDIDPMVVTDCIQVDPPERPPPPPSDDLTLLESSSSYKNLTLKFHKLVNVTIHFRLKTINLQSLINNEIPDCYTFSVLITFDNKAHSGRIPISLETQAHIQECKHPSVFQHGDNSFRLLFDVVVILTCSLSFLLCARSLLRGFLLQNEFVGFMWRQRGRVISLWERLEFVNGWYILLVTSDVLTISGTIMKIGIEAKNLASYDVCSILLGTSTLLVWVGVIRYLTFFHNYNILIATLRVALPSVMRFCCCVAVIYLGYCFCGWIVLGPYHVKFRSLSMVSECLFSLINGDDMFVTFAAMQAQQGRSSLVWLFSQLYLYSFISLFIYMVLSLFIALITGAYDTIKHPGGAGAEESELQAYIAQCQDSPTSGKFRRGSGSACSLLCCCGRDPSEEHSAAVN

By pEC50 is commonly meant the negative decadic logarithm of the EC50, by convention in mol/L. Take `CCOC(C)(C)C(=O)N1C[C@H](C)N(c2ncnc3c2c(-c2ccncc2)cn3-c2cc(C#N)ccn2)C[C@H]1C` [Compound 171, -(4-((2S,5R)-4-(2-ethoxy-2-methylpropanoyl)-2,5-dimethylpiperazin-1-yl)-5-(pyridin-4-yl)-7H-pyrrolo[2,3-d]pyrimidin-7-yl)isonicotinonitrile]: the negative-log EC50 (pEC50) in test [1] was 5.70 to 6.30; in test [2], less than 5.70; in test [3] it was 6.30 to 7.00.

Turning to `C[C@@H]1CN(c2ncnc3c2c(-c2ccncc2)cn3-c2cc(C#N)ccn2)[C@@H](C)CN1C(=O)C(C)(C)O` [Compound 125, 2-(4-((2S,5R)-4-(2-hydroxy-2-methylpropanoyl)-2,5-dimethylpiperazin-1-yl)-5-(pyridin-4-yl)-7H-pyrrolo[2,3-d]pyrimidin-7-yl)isonicotinonitrile], the pEC50 in test [1] is 5.70 to 6.30; in test [2], less than 5.70; in test [3], 6.30 to 7.00.

As for `C[C@@H]1CN(c2ncnc3c2c(-c2ccccc2F)cn3-c2cc(C#N)ccn2)[C@@H](C)CN1C(=O)C1(O)CCCCC1` [Compound 122, 2-(5-(2-fluorophenyl)-4-((2S,5R)-4-(1-hydroxycyclohexane-1-carbonyl)-2,5-dimethylpiperazin-1-yl)-7H-pyrrolo[2,3-d]pyrimidin-7-yl)isonicotinonitrile], the negative-log EC50 (pEC50) in test [1] is greater than 7.00; in test [2] it was 5.70 to 6.30; in test [3], greater than 7.00.

`CCOC(C)(C)C(=O)N1C[C@H](C)N(c2ncnc3c2c(N2CCC2)cn3-c2cc(C#N)ccn2)C[C@H]1C` [Compound 173]: the pEC50 in test [1] is 6.30 to 7.00; in test [2] it was 5.70 to 6.30; in test [3], greater than 7.00.

Regarding `C[C@@H]1CN(c2ncnc3c2c(-c2ccncc2)cn3-c2cccc(C#N)c2)[C@@H](C)CN1C(=O)C(C)(C)O` [Compound 135, 3-(4-((2S,5R)-4-(2-hydroxy-2-methylpropanoyl)-2,5-dimethylpiperazin-1-yl)-5-(pyridin-4-yl)-7H-pyrrolo[2,3-d]pyrimidin-7-yl)benzonitrile], the values for the pEC50 in test [1], in test [2] and in test [3] were less than 5.70, less than 5.70 and 5.70 to 6.30, respectively.

Consider `C[C@@H]1CN(c2ncnc3c2c(-c2ccccc2F)cn3-c2cc(C#N)ccn2)[C@@H](C)CN1C(=O)C1(O)CCC1` [Compound 114, 2-(5-(2-fluorophenyl)-4-((2S,5R)-4-(1-hydroxycyclobutane-1-carbonyl)-2,5-dimethylpiperazin-1-yl)-7H-pyrrolo[2,3-d]pyrimidin-7-yl)isonicotinonitrile], for which the negative-log EC50 (pEC50) in test [1] was 6.30 to 7.00; in test [3], greater than 7.00.

Take `CC(C)[C@H]1CN(C(=O)C(C)(C)O)[C@H](C)CN1c1ncnc2c1c(-c1ccccc1)cn2-c1cc(C#N)ccn1` [Compound 131, 2-(4-((2S,5R)-4-(2-hydroxy-2-methylpropanoyl)-2-isopropyl-5-methylpiperazin-1-yl)-5-phenyl-7H-pyrrolo[2,3-d]pyrimidin-7-yl)isonicotinonitrile]: the pEC50 in test [1] is 5.70 to 6.30; in test [3], 6.30 to 7.00.

As for `C[C@@H]1CN(c2nccc3c2c(-c2ccncc2)cn3-c2cccc(C#N)c2)[C@@H](C)CN1C(=O)C(C)(C)O` [Compound 145, 3-(4-((2S,5R)-4-(2-hydroxy-2-methylpropanoyl)-2,5-dimethylpiperazin-1-yl)-3-(pyridin-4-yl)-1H-pyrrolo[3,2-c]pyridin-1-yl)benzonitrile], the negative-log EC50 (pEC50) in test [1] and in test [3] was less than 5.70 each time.

With `C[C@@H]1CN(c2nccc3c2c(-c2ccncc2)cn3-c2cc(C#N)ccn2)[C@@H](C)CN1C(=O)C(C)(C)O` [Compound 140, 2-(4-((2S,5R)-4-(2-hydroxy-2-methylpropanoyl)-2,5-dimethylpiperazin-1-yl)-3-(pyridin-4-yl)-1H-pyrrolo[3,2-c]pyridin-1-yl)isonicotinonitrile], the results for the pEC50 in test [1] and in test [3] were less than 5.70 and 5.70 to 6.30, respectively.

Turning to `C[C@H]1CN(c2ncnc3c2c(-c2ccccc2F)cn3-c2cc(C#N)ccn2)[C@@H](C)CN1C(=O)C(C)(C)O` [Compound 169, 2-(5-(2-fluorophenyl)-4-((2S,5S)-4-(2-hydroxy-2-methylpropanoyl)-2,5-dimethylpiperazin-1-yl)-7H-pyrrolo[2,3-d]pyrimidin-7-yl)isonicotinonitrile], the pEC50 in test [1] is less than 5.70; in test [3], 5.70 to 6.30.

On to `C[C@@H]1CN(c2ncnc3c2c(-c2ccncc2)cn3-c2cc(F)ccn2)[C@@H](C)CN1C(=O)C(C)(C)O` [Compound 136, 1-((2R,5S)-4-(7-(4-fluoropyridin-2-yl)-5-(pyridin-4-yl)-7H-pyrrolo[2,3-d]pyrimidin-4-yl)-2,5-dimethylpiperazin-1-yl)-2-hydroxy-2-methylpropan-1-one], for which the figures for the pEC50 in test [1] and in test [3] were less than 5.70 and 5.70 to 6.30, respectively.

For the molecule `C[C@@H]1CN(c2nccc3c2c(-c2ccncc2)cn3-c2cc(F)ccn2)[C@@H](C)CN1C(=O)C(C)(C)O` [Compound 141, 1-((2R,5S)-4-(1-(4-fluoropyridin-2-yl)-3-(pyridin-4-yl)-1H-pyrrolo[3,2-c]pyridin-4-yl)-2,5-dimethylpiperazin-1-yl)-2-hydroxy-2-methylpropan-1-one], the pEC50 in test [1] and in test [3] was less than 5.70 in each case.

As to `C[C@@H]1CN(c2ncnc3c2c(-c2ccccc2F)cn3-c2cc(C#N)ccn2)[C@@H](C)CN1C(=O)C1(O)CC1` [Compound 157, 2-(5-(2-fluorophenyl)-4-((2S,5R)-4-(1-hydroxycyclopropane-1-carbonyl)-2,5-dimethylpiperazin-1-yl)-7H-pyrrolo[2,3-d]pyrimidin-7-yl)isonicotinonitrile], the pEC50 in test [1] and in test [3] was less than 5.70 in each case.

For `C[C@@H]1CN(c2ncnc3c2c(-c2ccccc2)cn3-c2cc(F)ccn2)[C@@H](C)CN1C(=O)C(C)(C)O` [Compound 106, 1-((2R,5S)-4-(7-(4-fluoropyridin-2-yl)-5-phenyl-7H-pyrrolo[2,3-d]pyrimidin-4-yl)-2,5-dimethylpiperazin-1-yl)-2-hydroxy-2-methylpropan-1-one], the values for the negative logarithm of the EC50 (pEC50) in test [1] and in test [3] were less than 5.70 and 6.30 to 7.00, respectively.
